Literature values as cited in US6730319B2, “Pharmaceutical compositions having depressed melting points” (Hoffmann-La Roche Inc., priority 2001, dated 2004).

Details: in vivo

For `Cc1c(C)c2c(c(C)c1OC(=O)c1cccnc1)CC[C@@](C)(CCC[C@H](C)CCC[C@H](C)CCCC(C)C)O2` [alpha-tocopherol-nicotinate], the “bioavailability increase in the fed status compared to the fasted state” value is given as 28 fold.
